Measurements as given in patent US12497398B2, “Potent and selective covalent inhibitors of serine-arginine protein kinase (SRPK) 1 and SRPK2 and uses thereof” (DANA-FARBER CANCER INSTITUTE, INC., priority 2020, dated 2025).
Where two headings read alike, the source gives them in different places.

Tests used:
[1] = target: SRPK2 (Homo sapiens, UniProt P78362); test: Z'-LYTE kinase assay, SRPK2 inhibition; format: biochemical
Experimental: (§1) IC50 values were determined by Z'-LYTE® kinase assay (catalog number PV3193, Invitrogen™) as described in Hatcher et al., Cell Chem. Biol. 25:460-470 (2018).

[2] = target: SRPK1 (Homo sapiens, UniProt Q96SB4); test: Z'-LYTE kinase assay, SRPK1 inhibition; format: biochemical
Chain of SRPK1 (Q96SB4 whole entry): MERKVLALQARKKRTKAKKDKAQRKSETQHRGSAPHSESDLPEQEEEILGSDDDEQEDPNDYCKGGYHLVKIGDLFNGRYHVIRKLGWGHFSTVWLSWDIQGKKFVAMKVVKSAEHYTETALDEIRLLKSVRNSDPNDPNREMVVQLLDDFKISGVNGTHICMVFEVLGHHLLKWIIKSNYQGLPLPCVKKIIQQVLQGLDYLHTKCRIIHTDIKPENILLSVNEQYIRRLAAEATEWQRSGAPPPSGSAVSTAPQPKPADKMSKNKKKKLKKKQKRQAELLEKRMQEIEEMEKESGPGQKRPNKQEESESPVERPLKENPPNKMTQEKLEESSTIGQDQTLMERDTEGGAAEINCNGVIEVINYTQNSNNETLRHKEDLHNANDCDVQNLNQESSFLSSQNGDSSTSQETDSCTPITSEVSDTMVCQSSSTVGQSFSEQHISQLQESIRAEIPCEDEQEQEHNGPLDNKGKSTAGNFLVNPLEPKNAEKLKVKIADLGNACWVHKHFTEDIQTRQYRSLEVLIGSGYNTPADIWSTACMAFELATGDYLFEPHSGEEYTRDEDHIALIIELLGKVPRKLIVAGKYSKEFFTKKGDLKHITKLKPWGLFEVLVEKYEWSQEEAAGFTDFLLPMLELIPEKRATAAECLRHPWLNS
Experimental: as §1

[3] = Z'-LYTE kinase assay, read-out: IC50 (nM) SRPK2
[4] = Z'-LYTE kinase assay, read-out: IC50 (nM) SRPK1

Chain of SRPK2 (P78362 whole entry): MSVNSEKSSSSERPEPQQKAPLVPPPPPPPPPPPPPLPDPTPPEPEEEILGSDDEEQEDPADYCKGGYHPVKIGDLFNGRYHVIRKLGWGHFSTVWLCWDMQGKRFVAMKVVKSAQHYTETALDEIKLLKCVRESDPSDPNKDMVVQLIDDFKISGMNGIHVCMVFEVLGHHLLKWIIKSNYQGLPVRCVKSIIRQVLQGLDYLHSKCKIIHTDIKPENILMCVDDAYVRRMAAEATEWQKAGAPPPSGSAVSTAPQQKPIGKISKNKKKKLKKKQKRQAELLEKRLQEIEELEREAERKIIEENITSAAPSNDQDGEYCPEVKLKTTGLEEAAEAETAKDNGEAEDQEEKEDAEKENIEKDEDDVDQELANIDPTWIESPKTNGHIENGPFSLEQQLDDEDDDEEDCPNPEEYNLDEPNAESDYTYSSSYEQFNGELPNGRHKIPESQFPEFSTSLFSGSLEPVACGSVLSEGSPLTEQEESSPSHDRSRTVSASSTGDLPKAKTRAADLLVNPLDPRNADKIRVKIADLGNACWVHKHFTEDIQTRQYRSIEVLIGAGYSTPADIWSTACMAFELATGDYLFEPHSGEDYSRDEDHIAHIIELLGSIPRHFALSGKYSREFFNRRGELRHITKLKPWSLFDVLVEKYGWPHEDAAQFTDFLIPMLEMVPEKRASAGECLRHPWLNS

Structure (SMILES) | IC50 [1] [nM] | IC50 [2] [nM] | IC50 [1, 3] [nM] | IC50 [2, 4] [nM]
COc1cc2c(=O)c3c4ccc(C#N)cc4[nH]c3n(C(C)C)c2cc1-c1cccc(S(=O)(=O)F)c1 [Compound 2, 3-(8-cyano-5-isopropyl-2-methoxy-11-oxo-6,11-dihydro-5H-indolo[2,3-b]quinolin-3-yl)benzenesulfonyl fluoride] | 5 | 4 |  | 
CCc1cc2c(=O)c3c4ccc(C#N)cc4[nH]c3n(C(C)C)c2cc1-c1cccc(S(=O)(=O)F)c1 [Compound 1, 3-(8-cyano-2-ethyl-5-isopropyl-11-oxo-6,11-dihydro-5H-indolo[2,3-b]quinolin-3-yl)benzenesulfonyl fluoride] |  |  | 9 | 6
COc1cc2c(=O)c3c4ccc(C#N)cc4[nH]c3n(C(C)C)c2cc1-c1cncc(S(=O)(=O)F)c1 [Compound 3, 5-(8-cyano-5-isopropyl-2-methoxy-11-oxo-6,11-dihydro-5H-indolo[2,3-b]quinolin-3-yl)pyridine-3-sulfonyl fluoride] |  |  | 5 | 6
